Like-named read-outs stand apart in the source and are kept apart here. One block for each molecule: values may come before it.
Assays:
[1] = tested on: clonogenic KB cancer cells; assay: Clonogenic cell survival (colony formation) assay, KB cells; assay type: cell-based, human; conditions: FIG. 3; for fold by which compound G is more potent than the named compound (IC90): KB cells, 17 hours exposure
Description: Cancer cells were seeded at 3.0E+05 cells in a T75 flask with 10 ml of RPMI1640 media, free of folic acid, and containing 10% fetal bovine serum and 25 mM HEPES. Cells were grown in a 37° C. incubator containing 5% CO2 for 2 days. On day 2, supernatants were removed from the flasks, and the flasks were divided into 2 groups. One group of cells were incubated with 5 ml of media containing […] of folic acid (Sigma) for 30 minutes and the others were grown in 5 ml of media without added folic acid. Cells were then treated with 20 nM of epothilone, epothilone analog, conjugated epothilone, or conjugated epothilone analog for one hour. At the end of the incubation, the drugs were removed from the flasks and the cells were washed with PBS buffer 3×. After washing, 5 ml of complete media were added into each flask, and the cell was grown in the CO2 incubator for 23 hours. The next morning, the cells were removed from the flasks by trypsinization, cell numbers were determined, and then cells were plated in a 6 well plates. Ten days after plating, colonies were stained with crystal violet and counted. The surviving fractions were determined.
This is important because it is the aziridine epothilone analog, e.g., Compound G, that mediates the antitumor effects upon release from folic acid. […] The concentration needed to kill 90% of clonogenic KB cancer cells (IC90) was determined after a drug exposure duration of 17 hours.

[2] = tested on: A2780 ovarian carcinoma cell line; assay: cells; assay type: cell-based, human; conditions: read-out: A2780 IC5
Description: (§1) In vitro cytotoxicity was assessed in tumor cells using a tetrazolium-based colorimetric assay which takes advantage of the metabolic conversion of MTS (3-(4,5-dimethylthiazol-2-yl)-5-(3-carboxymethoxyphenyl)-2-([…])-2H-tetrazolium, inner salt) to a reduced form that absorbs light at 492 nm. Cells were seeded 24 hr prior to addition of the epothilone, epothilone analog, conjugated epothilone, or conjugated epothilone analog. Following a 72 hour incubation at 37° C. with serially diluted compound, MTS, in combination with the electron coupling agent phenazine methosulfate, was added to the cells. The incubation was continued for 3 hours, then the absorbancy of the medium at 492 nm was measured with a spectrophotometer to obtain the number of surviving cells relative to control populations. The results are expressed as median cytotoxic concentrations (IC50 values).
(§2) Other epothilone analogs, e.g., aziridinyl epothilones, are known in the art (see, e.g., U.S. Pat. No. 6,399,638; Regueiro-Ren, A, et al. (2001) Org. Letters. 3:2693-96) and show potent antitumor cytotoxicity. For example, an MTS assay that compared the relative cytotoxic potency of a number of epothilone analogs against a pair of taxane-resistant cancer cell lines (HCTVM46 and […]) was conducted (see Table 1). HCTVM46 is a human colon carcinoma cell line derived from the sensitive HCT116 parent line, and is resistant to taxanes due to overexpression of the 170 kD p-glyprotein drug efflux transporter. A2780Tax is a human ovarian carcinoma cell line derived from the parent A2780 line, and is resistant to paclitaxel as a result of a mutation in the tubulin amino acid sequence that impairs the ability of paclitaxel to bind.
(§3) As is shown in Table 1, various aziridinyl epothilone analogs (Compounds CC-EE) show potent antitumor activity against both the HCT116 colon and A2780 ovarian carcinoma cell lines, compared to other known antitumor agents, e.g., paclitaxel, compound AA, and epothilone B.

[3] = tested on: HCT116 colon carcinoma cell line; assay: cells; assay type: cell-based, human; conditions: read-out: HCT116 IC50
Description: as §1, §2, §3

[4] = Phase II clinical trials; conditions: in vivo
[5] = tested on: HCT116VM46 (HCTVM46) human colon carcinoma cell line; assay type: cell-based; conditions: R/S ratio = HCT116 IC50/HCT116VM46IC50 as printed
Description: as §1, §2

[6] = tested on: A2780Tax human ovarian carcinoma cell line; assay: In vitro MTS assay, paclitaxel-resistant A2780Tax versus A2780; assay type: cell-based
Description: as §1, §2

[7] = target: T1, FR expressed on KB tumor cells (Homo sapiens, UniProt P15328); assay: Displacement of radiolabeled folic acid from FR on KB tumor cells; assay type: binding; conditions: compared to folic acid, RA of folic acid=1.0
T1 construct: FR expressed on KB tumor cells grown to confluence; endogenous in cells; host or cells: KB tumor cells
T1 sequence (P15328 25-234): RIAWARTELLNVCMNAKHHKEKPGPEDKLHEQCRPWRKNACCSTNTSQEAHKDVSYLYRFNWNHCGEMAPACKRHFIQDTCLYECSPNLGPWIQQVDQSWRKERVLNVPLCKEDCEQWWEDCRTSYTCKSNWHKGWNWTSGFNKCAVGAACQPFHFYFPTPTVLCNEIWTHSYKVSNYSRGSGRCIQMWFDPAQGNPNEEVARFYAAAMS
Description: The binding of folate conjugates of Compound AA to FR was determined in an assay that measures displacement of radiolabeled folic acid from FR expressed on KB tumor cells grown to confluence.

[8] = tested on: FRα(+) 98M109 tumors; assay: FRα(+) 98M109 tumor model, competition with a folate analog; assay type: in vivo, mice; conditions: folate analog at 20-fold excess of the dose of compound J; FIG. 6
From the text: Female CD2F1 mice (Harlan Sprague-Dawley Inc., 20-22 g) maintained in a controlled environment and provided with water and food ad libitum were used in these studies. The murine FRα(−) Madison 109 (M109) lung carcinoma (Marks et al., 1977) and the FR-expressing (FRα(+)) 98M109 variant were used to evaluate the efficacy of the epothilone, epothilone analog (e.g., epothilone derivative), folate-epothilone conjugate, or folate-epothilone analog conjugate. In addition, the human head and neck epidermoid carcinoma KB grown in nude mice was also used for this purpose. […]
(§4) Tumor response was determined by measurement of tumors with a caliper twice a week, until the tumors reached a predetermined “target” size of 1 gm. […]
(§5) Antitumor activity was evaluated at the maximum tolerated dose (MTD) which is defined as the dose level immediately […] which excessive toxicity (i.e. more than one death) occurred. When death occurred, the day of death was recorded. […]
(§6) To estimate tumor cell kill, the tumor volume doubling time (TVDT) was first calculated with the formula: TVDT=Median time (days) for control tumors to reach target size−Median time (days) for control tumors to reach half the target size And, Log cell kill=T−C÷(3.32×TVDT) Statistical evaluations of data were performed using Gehan's generalized Wilcoxon test.

[9] = tested on: KB nasopharyngeal epidermoid carcinoma xenografts; assay: KB in vivo FRα(+) tumor model, xenografts in nude mice; conditions: FIG. 4
From the text: (§7) Female CD2F1 mice (Harlan Sprague-Dawley Inc., 20-22 g) maintained in a controlled environment and provided with water and food ad libitum were used in these studies. The murine FRα(−) Madison 109 (M109) lung carcinoma (Marks et al., 1977) and the FR-expressing (FRα(+)) 98M109 variant were used to evaluate the efficacy of the epothilone, epothilone analog (e.g., epothilone derivative), folate-epothilone conjugate, or folate-epothilone analog conjugate. In addition, the human head and neck epidermoid carcinoma KB grown in nude mice was also used for this purpose.
(§8) For administration of epothilones or epothilone analogs to mice, an excipient consisting of the following was used: CREMOPHOR®/ethanol/water (1:1:8, v/v). The compounds were first dissolved in a mixture of CREMOPHOR®/ethanol (50:50). Final dilution to the required dosage strength was made less than 1 hr before drug administration. Mice were administered the agents by bolus IV injection through the tail vein. Folate-epothilone conjugates or folate-epothilone analog conjugates were prepared in sterile phosphate buffered saline and administered to mice by IV bolus injection through the tail vein at a volume of 0.01 mL/g of mice. Treatment of each animal was based on individual body weight. […]
as §4, §5, §6

[10] = tested on: FRα(−) M109 murine lung carcinoma; assay: FRα(−) M109 parent tumor model in mice; assay type: in vivo; conditions: IV bolus, FIG. 5
From the text: as §7
(§9) For administration of epothilones or epothilone analogs to mice, an excipient consisting of the following was used: CREMOPHOR®/ethanol/water (1:1:8, v/v). The compounds were first dissolved in a mixture of CREMOPHOR®/ethanol (50:50). Final dilution to the required dosage strength was made less than 1 hr before drug administration. Mice were administered the agents by bolus IV injection through the tail vein. Folate-epothilone conjugates or folate-epothilone analog conjugates were prepared in sterile phosphate buffered saline and administered to mice by IV bolus injection through the tail vein at a volume of 0.01 mL/g of mice. Treatment of each animal was based on individual body weight.
(§10) The required number of animals needed to detect a meaningful response were pooled at the start of the experiment and each was given a subcutaneous inoculation of a tumor brei (2% w/v). Tumors were allowed to grow for 4 days. On the fourth day, animals were evenly distributed to various treatment and control groups. Treated animals were checked daily for treatment related toxicity/mortality. Each group of animals was weighed before the initiation of treatment (Wt1) and then again following the last treatment dose (Wt2). The difference in body weight (Wt2−Wt1) provides a measure of treatment-related toxicity.
(§11) Tumor response was determined by measurement of tumors with a caliper twice a week, until the tumors reached a predetermined “target” size of 1 gm. Tumor weights (mg) were estimated from the formula: Tumor weight=(length×width^2)÷2
as §5, §6

[11] = FRα(−) M109 parent tumor model in mice; assay type: in vivo; conditions: female, CD2F1, mouse, in vivo, M109 model, IV, read-out: maximum tolerated dose (MTD)
From the text: as §7, §9, §10, §11, §5, §6

[12] = KB in vivo FRα(+) tumor model, xenografts in nude mice; conditions: mouse, in vivo; KB model, nude mice, IV; read-out: maximum tolerated dose (MTD)
From the text: as §7, §8, §4, §5, §6

[13] = Homo sapiens, HCT-116, Mean IC50 ± SD from four separate experiments, MTS, 72 hour incubation
[14] = Mean IC50 ± SD from four separate experiments, MTS, 72 hour incubation

SMILES: C/C(=C\c1csc(C)n1)[C@@H]1CC2[C@@H](CCC[C@H](C)[C@H](O)[C@@H](C)C(=O)C(C)(C)[C@@H](O)CC(=O)O1)[N@@]2CCO (relative stereo) [Compound G, [1S-[1R*,3R*(E),7R*,10S*,11R*,12R*,16S*]]-7,11-Dihydroxy-17-[2-hydroxyethyl]-8,8,10,12-tetramethyl-3-[1-methyl-2-(2-methyl-4-thiazolyl)ethenyl]-4-oxa-17-azabicyclo[14.1.0]heptadecane-5,9-dione]
IC90, concentration needed to kill 90% of clonogenic KB cancer cells ([1]; drug exposure duration of 17 hours): 4.3 nM

SMILES: C/C(=C\c1csc(CN)n1)[C@@H]1CC2O[C@]2(C)CCC[C@H](C)[C@H](O)[C@@H](C)C(=O)C(C)(C)[C@@H](O)CC(=O)O1 (stereo partly drawn) [Compound AA]
IC50 ([2]; Homo sapiens, A2780, Mean IC50 ± SD from four separate experiments, MTS, 72 hour incubation): 1.1 ± 0.4 nM
IC50 [3, 13]: 1.2 ± 0.3 nM
activity in Phase II clinical trials [4]: has activity
fold by which compound G is more potent than the named compound (IC90) [1]: ~4 fold
R/S Ratio (HCT116) [5]: 14.8
R/S Ratio (A2780) [6]: 3

SMILES: C/C(=C\c1csc(C)n1)C1C[C@@H]2N[C@@H]2CCC[C@H](C)[C@H](O)[C@@H](C)C(=O)C(C)(C)[C@@H](O)CC(=O)O1 (stereo partly drawn) [Compound CC]
IC50 ([2]; Homo sapiens, A2780, 72 h): 3.4 ± 1.5 nM
IC50 ([3]; Homo sapiens, HCT-116, 72 h): 4.2 ± 2.8 nM
fold by which compound G is more potent than the named compound (IC90) [1]: ~2 fold
R/S Ratio (HCT116) [5]: 3.1
R/S Ratio (A2780) [6]: 4.7

SMILES: C/C(=C\c1csc(C)n1)[C@@H]1C[C@H]2[C@@H](CCC[C@H](C)[C@H](O)[C@@H](C)C(=O)C(C)(C)[C@@H](O)CC(=O)O1)N2CCOC(=O)OCCSSC[C@H](NC(=O)[C@H](CC(=O)O)NC(=O)[C@H](CCCNC(=N)N)NC(=O)[C@H](CC(=O)O)NC(=O)CC[C@H](NC(=O)c1ccc(NCc2cnc3nc(N)[nH]c(=O)c3n2)cc1)C(=O)O)C(=O)O (stereo partly drawn) [Compound J]
relative affinity (RA) for folate receptor [7]: 0.77
effect of co-administered folate analog on antitumor effects [8]: protect FRα(+) 98M109 tumors from the antitumor effects of compound J
toxicity at the two dose levels below MTD ([9]; KB model): minimal toxicity
antitumor effects compared at the MTDs ([9]; versus ixabepilone): superior antitumor effects than ixabepilone
antitumor activity in FRα(−) M109 parent tumor model [10]: poor activity at all dose levels tested
MTD [11]: 2.4 µmol/kg

SMILES: C/C(=C\c1csc(C)n1)C1C[C@H]2[C@@H](CCC[C@H](C)[C@H](O)[C@@H](C)C(=O)C(C)(C)[C@@H](O)CC(=O)O1)N2C (stereo partly drawn) [DD]
IC50 ([2]; Homo sapiens, A2780, 72 h): 0.25 ± 0.06 nM
IC50 ([3]; Homo sapiens, HCT-116, 72 h): 0.37 ± 0.13 nM
R/S Ratio (HCT116) [5]: 0.6
R/S Ratio (A2780) [6]: 4.1

SMILES: C/C(=C\c1csc(C)n1)[C@@H]1C[C@@H]2O[C@]2(C)CCC[C@H](C)[C@H](O)[C@@H](C)C(=O)C(C)(C)[C@@H](O)CC(=O)O1 [Epothilone B]
IC50 [2, 14]: 0.23 ± 0.09 nM
IC50 [3, 14]: 0.4 ± 0.13 nM
R/S Ratio (HCT116) [5]: 0.5
R/S Ratio (A2780) [6]: 2.5

relative affinity (RA) for folate receptor [7]: 1.0
SMILES: Nc1nc2ncc(CNc3ccc(C(=O)N[C@@H](CCC(=O)O)C(=O)O)cc3)nc2c(=O)[nH]1 [folic acid]

SMILES: C/C(=C\c1csc(C)n1)[C@@H]1C[C@@H]2O[C@]2(C)CCC[C@H](C)[C@H](O)[C@@H](C)C(=O)C(C)(C)[C@@H](O)CC(=O)N1 [ixabepilone]
fold by which compound G is more potent than the named compound (IC90) [1]: ~6 fold
MTD [12]: 5 µmol/kg
antitumor activity in FRα(−) M109 parent tumor model [10]: active at its MTD
MTD [11]: 5 µmol/kg

IC50 [3, 13]: 3.3 ± 1 nM
SMILES: CC(=O)O[C@H]1C(=O)[C@@]2(C)[C@H]([C@H](OC(=O)c3ccccc3)[C@]3(O)C[C@H](OC(=O)[C@H](O)[C@@H](NC(=O)c4ccccc4)c4ccccc4)C(C)=C1C3(C)C)[C@]1(OC(C)=O)CO[C@@H]1C[C@@H]2O [paclitaxel]
R/S Ratio (A2780) [6]: 22.1
